Experimental data taken from patent US20080009418A1, “Selective Inhibitors” (Alchemia LTD., priority 2004, published 2008).

What was measured:
[1] = target: T1, Human melanin-concentrating hormone (MCH1) (Homo sapiens, UniProt Q99705); assay: Radioligand binding, human melanin-concentrating hormone MCH1 membranes, FlashPlate, [125I]-S36057; details: compound at 10 μM; for A6 radioligand binding inhibition: human MCH1 membranes
T1 construct: purchased Perkin Elmer Biosignal
In short: (§1)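 Cloned human receptor membranes were coated onto FlashPlate wells and incubated with radioligand and compound (added from a 0.5 mM DMSO daughter plate) for 1 hour at room temperature in the dark. Scintillation counting gave percent inhibition, with DMSO defining total and reference ligand defining non-specific binding.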

[2] = target: T2, Human neuropeptide Y (NPY-Y1) (Homo sapiens, UniProt P25929); assay: Radioligand binding, human neuropeptide Y NPY-Y1 membranes, FlashPlate, [125I]-PYY; details: compound at 10 μM; for A9 radioligand binding inhibition: human NPY-Y1 membranes
T2 construct: purchased Perkin Elmer Biosignal
T2 sequence (P25929 1-384): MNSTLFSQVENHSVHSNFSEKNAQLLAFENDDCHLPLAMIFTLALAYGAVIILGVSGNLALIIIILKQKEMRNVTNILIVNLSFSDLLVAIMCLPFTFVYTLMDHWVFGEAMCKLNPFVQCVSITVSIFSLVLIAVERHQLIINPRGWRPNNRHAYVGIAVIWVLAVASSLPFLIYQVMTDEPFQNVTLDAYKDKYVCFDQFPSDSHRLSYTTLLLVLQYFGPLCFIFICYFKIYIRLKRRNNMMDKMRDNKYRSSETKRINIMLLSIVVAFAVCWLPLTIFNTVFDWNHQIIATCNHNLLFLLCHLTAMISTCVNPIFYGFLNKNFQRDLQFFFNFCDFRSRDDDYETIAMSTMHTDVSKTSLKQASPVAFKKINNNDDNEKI
In short: as §1

Human opioid (ORL1) = target: T3, Human opioid (ORL1) (Homo sapiens, UniProt P41146); assay: Radioligand binding, human opioid ORL1 membranes, FlashPlate, [125I]-Nociceptin; details: compound at 10 μM; for A10 radioligand binding inhibition: human ORL1 membranes
T3 construct: purchased Perkin Elmer Biosignal
In short: as §1

Human neurokinin (NK1) = target: T4, Human neurokinin (NK1) (Homo sapiens, UniProt P25103); assay: Radioligand binding, human neurokinin NK1 membranes, filtration, [125I]-Substance P; details: compound at 10 μM; for A8 radioligand binding inhibition: human neurokinin NK1 membranes
T4 construct: purchased Perkin Elmer Biosignal
In short: (§2)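 Membranes from cloned human receptors were incubated with compound and radioligand for 1 hour at room temperature. Bound ligand was collected on 0.3% PEI-soaked filters, washed with cold 50 mM Tris-HCl pH 7.4, and counted by scintillation. Percent inhibition was computed against DMSO totals and reference-ligand nonspecific wells.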

Human Melanocortin (MC4) = target: T5, Human Melanocortin (MC4) (Homo sapiens, UniProt P32245); assay: Radioligand binding, human melanocortin MC4 membranes, FlashPlate, [125I]-NDP-αMSH; details: compound at 10 μM; for A4 radioligand binding inhibition: human melanocortin MC4 membranes
T5 construct: purchased Perkin Elmer Biosignal
In short: as §1

Mouse urotensin (mUR2) = target: T6, Mouse urotensin (mUR2) (Mus musculus, UniProt Q8VIH9); assay: Radioligand binding, mouse urotensin mUR2 membranes, FlashPlate, [125I]-Urotensin II; details: compound at 10 μM; for A11 radioligand binding inhibition: mouse urotensin mUR2 membranes
T6 construct: purchased Perkin Elmer Biosignal
T6 sequence (Q8VIH9 1-385): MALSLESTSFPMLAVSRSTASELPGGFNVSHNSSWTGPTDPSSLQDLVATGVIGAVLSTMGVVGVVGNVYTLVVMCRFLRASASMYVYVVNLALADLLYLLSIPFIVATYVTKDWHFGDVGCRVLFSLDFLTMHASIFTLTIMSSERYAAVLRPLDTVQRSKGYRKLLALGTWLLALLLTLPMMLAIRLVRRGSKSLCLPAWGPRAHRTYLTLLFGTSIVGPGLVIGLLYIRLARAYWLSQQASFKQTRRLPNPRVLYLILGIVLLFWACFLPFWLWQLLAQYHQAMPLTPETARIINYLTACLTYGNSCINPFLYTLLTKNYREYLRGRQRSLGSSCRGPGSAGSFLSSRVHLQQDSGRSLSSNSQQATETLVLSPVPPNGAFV
In short: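 Cloned mouse urotensin (mUR2) receptor membranes from Perkin Elmer Biosignal were immobilized in FlashPlate microplates using a proprietary coating. Each well got 19.5 μl buffer, then 0.5 μl of DMSO, reference ligand, or compound. Adding 5 μl of [125I]-Urotensin II, diluted to 5× final concentration in binding buffer, started binding. Plates were sealed with TopSeal-A and incubated 1 hour at room temperature in the dark. Wells were counted for 30 seconds each on a TopCount after a 60-second delay, and percentage inhibition was calculated.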

Human δ-opioid (DOP) = target: T7, Human δ-opioid (DOP) (Homo sapiens, UniProt P41143); assay: Radioligand binding, human δ-opioid (DOP) membranes, FlashPlate, [3H]-Bremazocine; details: compound at 10 μM; for A1 radioligand binding inhibition: human δ-opioid (DOP) membranes
T7 construct: purchased Perkin Elmer Biosignal
In short: as §1

Human κ-Opioid (KOP) = target: T8, Human κ-Opioid (KOP) (Homo sapiens, UniProt P41145); assay: Radioligand binding, human κ-opioid (KOP) membranes, filtration, [3H]-Diprenorphine; details: compound at 10 μM; for A2 radioligand binding inhibition: human κ-opioid (KOP) membranes
T8 construct: purchased Perkin Elmer Biosignal
In short: as §2

Human Melanocortin (MC3) = target: T9, Human Melanocortin (MC3) (Homo sapiens, UniProt P41968); assay: Radioligand binding, human melanocortin MC3 membranes, FlashPlate, [125I]-NDP-αMSH; details: compound at 10 μM; for A3 radioligand binding inhibition: human melanocortin MC3 membranes
T9 construct: purchased Perkin Elmer Biosignal
In short: as §1

Human melanocortin (MC5) = target: T10, Human melanocortin (MC5) (Homo sapiens, UniProt P33032); assay: Radioligand binding, human melanocortin MC5 membranes, FlashPlate, [125I]-NDP-αMSH; details: compound at 10 μM; for A5 radioligand binding inhibition: human melanocortin MC5 membranes
T10 construct: purchased Perkin Elmer Biosignal
In short: as §1

Human μ-opioid (MOP) = target: T11, Human μ-opioid (MOP) (Homo sapiens, UniProt P35372); assay: Radioligand binding, human μ-opioid (MOP) membranes, FlashPlate, [3H]-Naloxone; details: compound at 10 μM; for A7 radioligand binding inhibition: human μ-opioid (MOP) membranes
T11 construct: purchased Perkin Elmer Biosignal
In short: as §1

T8 sequence (P41145 whole entry): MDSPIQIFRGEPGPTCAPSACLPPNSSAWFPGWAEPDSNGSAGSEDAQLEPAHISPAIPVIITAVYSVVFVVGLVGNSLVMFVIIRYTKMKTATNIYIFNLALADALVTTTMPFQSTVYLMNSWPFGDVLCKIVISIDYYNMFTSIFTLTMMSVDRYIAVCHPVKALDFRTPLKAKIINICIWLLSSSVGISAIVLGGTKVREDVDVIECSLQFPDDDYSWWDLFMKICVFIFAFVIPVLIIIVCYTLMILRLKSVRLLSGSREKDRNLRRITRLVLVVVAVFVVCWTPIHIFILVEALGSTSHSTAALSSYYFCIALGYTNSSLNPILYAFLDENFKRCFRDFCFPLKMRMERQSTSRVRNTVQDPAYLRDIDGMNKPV
T4 sequence (P25103 whole entry): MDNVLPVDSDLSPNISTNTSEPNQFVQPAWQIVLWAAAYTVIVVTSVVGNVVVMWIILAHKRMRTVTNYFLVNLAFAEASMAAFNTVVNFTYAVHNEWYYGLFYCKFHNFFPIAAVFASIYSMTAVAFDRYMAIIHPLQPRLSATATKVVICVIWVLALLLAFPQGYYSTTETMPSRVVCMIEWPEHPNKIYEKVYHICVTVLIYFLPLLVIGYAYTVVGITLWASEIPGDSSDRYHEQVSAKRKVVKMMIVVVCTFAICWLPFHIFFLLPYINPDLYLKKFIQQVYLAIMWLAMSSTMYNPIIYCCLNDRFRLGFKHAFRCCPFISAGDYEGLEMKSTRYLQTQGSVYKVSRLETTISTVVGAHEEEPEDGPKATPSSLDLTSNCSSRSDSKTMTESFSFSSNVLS
T3 sequence (P41146 whole entry): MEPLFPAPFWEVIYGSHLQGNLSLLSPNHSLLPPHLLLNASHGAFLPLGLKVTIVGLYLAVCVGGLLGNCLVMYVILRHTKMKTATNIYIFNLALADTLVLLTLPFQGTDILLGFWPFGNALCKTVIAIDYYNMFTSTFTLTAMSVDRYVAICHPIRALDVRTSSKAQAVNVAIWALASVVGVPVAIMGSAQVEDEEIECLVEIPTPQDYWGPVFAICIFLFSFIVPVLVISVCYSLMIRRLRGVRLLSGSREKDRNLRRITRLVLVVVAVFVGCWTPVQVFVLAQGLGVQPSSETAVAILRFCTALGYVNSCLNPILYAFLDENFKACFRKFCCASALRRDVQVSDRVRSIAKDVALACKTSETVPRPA
T5 sequence (P32245 whole entry): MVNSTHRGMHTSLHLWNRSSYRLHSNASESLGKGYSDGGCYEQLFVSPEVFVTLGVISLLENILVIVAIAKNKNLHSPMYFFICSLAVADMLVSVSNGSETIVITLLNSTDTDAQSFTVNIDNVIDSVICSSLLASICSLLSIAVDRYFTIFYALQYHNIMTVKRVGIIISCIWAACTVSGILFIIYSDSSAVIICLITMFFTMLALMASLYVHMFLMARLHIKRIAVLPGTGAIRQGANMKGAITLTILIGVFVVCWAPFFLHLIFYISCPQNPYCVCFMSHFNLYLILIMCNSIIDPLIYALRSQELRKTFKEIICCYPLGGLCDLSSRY
T7 sequence (P41143 whole entry): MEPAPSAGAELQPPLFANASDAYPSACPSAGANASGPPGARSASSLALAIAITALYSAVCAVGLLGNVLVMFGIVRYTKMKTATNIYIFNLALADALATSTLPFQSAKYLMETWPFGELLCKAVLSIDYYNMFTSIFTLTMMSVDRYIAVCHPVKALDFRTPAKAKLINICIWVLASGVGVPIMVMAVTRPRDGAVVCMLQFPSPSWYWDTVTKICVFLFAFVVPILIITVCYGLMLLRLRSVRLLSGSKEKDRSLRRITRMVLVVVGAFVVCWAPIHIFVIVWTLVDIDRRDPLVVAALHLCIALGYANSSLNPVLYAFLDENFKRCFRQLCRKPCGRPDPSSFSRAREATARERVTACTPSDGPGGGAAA
T1 sequence (Q99705 whole entry): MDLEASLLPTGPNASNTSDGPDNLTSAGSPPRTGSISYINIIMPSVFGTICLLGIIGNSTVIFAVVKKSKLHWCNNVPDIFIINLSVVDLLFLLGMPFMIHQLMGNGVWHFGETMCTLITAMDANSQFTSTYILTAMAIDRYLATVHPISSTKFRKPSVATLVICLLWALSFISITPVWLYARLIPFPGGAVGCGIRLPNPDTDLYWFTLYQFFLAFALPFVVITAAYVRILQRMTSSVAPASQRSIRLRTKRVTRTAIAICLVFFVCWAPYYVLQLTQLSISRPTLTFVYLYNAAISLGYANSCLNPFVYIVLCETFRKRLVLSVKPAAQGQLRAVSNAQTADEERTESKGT
T9 sequence (P41968 whole entry): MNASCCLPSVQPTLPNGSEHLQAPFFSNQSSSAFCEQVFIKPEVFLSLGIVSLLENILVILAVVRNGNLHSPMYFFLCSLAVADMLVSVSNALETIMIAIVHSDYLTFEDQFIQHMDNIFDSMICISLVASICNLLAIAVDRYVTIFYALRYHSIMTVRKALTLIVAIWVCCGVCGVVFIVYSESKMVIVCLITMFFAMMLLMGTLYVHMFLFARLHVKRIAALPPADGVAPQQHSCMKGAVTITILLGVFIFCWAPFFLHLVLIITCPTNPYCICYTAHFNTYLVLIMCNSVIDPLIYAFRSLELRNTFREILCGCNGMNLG
T10 sequence (P33032 whole entry): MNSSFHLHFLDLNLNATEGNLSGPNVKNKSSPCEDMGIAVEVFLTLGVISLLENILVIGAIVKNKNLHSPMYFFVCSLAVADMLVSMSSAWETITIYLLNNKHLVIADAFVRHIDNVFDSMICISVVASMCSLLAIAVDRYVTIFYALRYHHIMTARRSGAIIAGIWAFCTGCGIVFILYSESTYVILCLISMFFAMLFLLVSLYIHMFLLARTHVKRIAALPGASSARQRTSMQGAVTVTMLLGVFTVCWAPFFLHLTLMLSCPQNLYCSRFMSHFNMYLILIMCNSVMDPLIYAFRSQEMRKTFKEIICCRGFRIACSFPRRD
T11 sequence (P35372 whole entry): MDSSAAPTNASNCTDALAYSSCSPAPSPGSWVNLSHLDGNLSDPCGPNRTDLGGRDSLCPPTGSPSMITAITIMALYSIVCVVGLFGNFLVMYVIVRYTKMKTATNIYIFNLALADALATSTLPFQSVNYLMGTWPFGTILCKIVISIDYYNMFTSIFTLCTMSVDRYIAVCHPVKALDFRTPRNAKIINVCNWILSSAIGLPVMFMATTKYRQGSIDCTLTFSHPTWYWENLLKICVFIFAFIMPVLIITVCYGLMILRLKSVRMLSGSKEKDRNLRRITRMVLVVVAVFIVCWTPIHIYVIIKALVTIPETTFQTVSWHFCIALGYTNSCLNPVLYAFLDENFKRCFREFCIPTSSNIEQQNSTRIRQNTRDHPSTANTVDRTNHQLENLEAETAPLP

Structure (SMILES) | A6 radioligand binding inhibition [1] | A9 radioligand binding inhibition [2] | A10 radioligand binding inhibition (Human opioid (ORL1)) | A8 radioligand binding inhibition (Human neurokinin (NK1)) | A4 radioligand binding inhibition (Human Melanocortin (MC4)) | A11 radioligand binding inhibition (Mouse urotensin (mUR2)) | A1 radioligand binding inhibition (Human δ-opioid (DOP)) | A2 radioligand binding inhibition (Human κ-Opioid (KOP)) | A3 radioligand binding inhibition (Human Melanocortin (MC3)) | A5 radioligand binding inhibition (Human melanocortin (MC5)) | A7 radioligand binding inhibition (Human μ-opioid (MOP)) | A6 radioligand binding, percentage inhibition ([1]; [125I]-S36057) | A9 radioligand binding, percentage inhibition ([2]; [125I]-PYY) | A10 radioligand binding, percentage inhibition (Human opioid (ORL1); [125I]-Nociceptin) | A8 radioligand binding, percentage inhibition (Human neurokinin (NK1); [125I]-Substance P) | A4 radioligand binding, percentage inhibition (Human Melanocortin (MC4); [125I]-NDP-αMSH) | A11 radioligand binding, percentage inhibition (Mouse urotensin (mUR2); [125I]-Urotensin II) | A1 radioligand binding, percentage inhibition (Human δ-opioid (DOP); [3H]-Bremazocine) | A2 radioligand binding, percentage inhibition (Human κ-Opioid (KOP); [3H]-Diprenorphine) | A3 radioligand binding, percentage inhibition (Human Melanocortin (MC3); [125I]-NDP-αMSH) | further results
CO[C@H]1[C@H](O)[C@@H](COCc2ccc(Cl)cc2)OC(OCc2ccc(-c3ccccc3)cc2)[C@@H]1NC(=O)CCCNC(=N)N (stereo partly drawn) [compound 65] | − (“−” indicates less than 50% inhibition at 10 μM) | − (“−” indicates less than 50% inhibition at 10 μM) | − (“−” indicates less than 50% inhibition at 10 μM) | + (“+” indicates greater than 50% inhibition at 10 μM) | + (“+” indicates greater than 50% inhibition at 10 μM) | − (“−” indicates less than 50% inhibition at 10 μM) | − (“−” indicates less than 50% inhibition at 10 μM) | − (“−” indicates less than 50% inhibition at 10 μM) | + (“+” indicates greater than 50% inhibition at 10 μM) | + (“+” indicates greater than 50% inhibition at 10 μM) | + (“+” indicates greater than 50% inhibition at 10 μM) | – | – | – | – | – | – | – | – | – | –
COC[C@H]1OC(OCc2ccc(Cl)cc2)[C@H](NC(=O)CCNC(=N)N)[C@@H](OCc2ccc(Cl)cc2)[C@@H]1O (stereo partly drawn) [compound 38] | + (“+” indicates greater than 50% inhibition at 10 μM) | − (“−” indicates less than 50% inhibition at 10 μM) | − (“−” indicates less than 50% inhibition at 10 μM) | + (“+” indicates greater than 50% inhibition at 10 μM) | − (“−” indicates less than 50% inhibition at 10 μM) | − (“−” indicates less than 50% inhibition at 10 μM) | − (“−” indicates less than 50% inhibition at 10 μM) | − (“−” indicates less than 50% inhibition at 10 μM) | − (“−” indicates less than 50% inhibition at 10 μM) | + (“+” indicates greater than 50% inhibition at 10 μM) | − (“−” indicates less than 50% inhibition at 10 μM) | – | – | – | – | – | – | – | – | – | –
CO[C@H]1[C@H](O)[C@@H](COCc2ccc(Cl)cc2)OC(OCc2ccccc2)[C@@H]1NC(=O)CNC(=N)N (stereo partly drawn) [compound 90] | − (“−” indicates less than 50% inhibition at 10 μM) | − (“−” indicates less than 50% inhibition at 10 μM) | − (“−” indicates less than 50% inhibition at 10 μM) | + (“+” indicates greater than 50% inhibition at 10 μM) | − (“−” indicates less than 50% inhibition at 10 μM) | − (“−” indicates less than 50% inhibition at 10 μM) | − (“−” indicates less than 50% inhibition at 10 μM) | − (“−” indicates less than 50% inhibition at 10 μM) | − (“−” indicates less than 50% inhibition at 10 μM) | − (“−” indicates less than 50% inhibition at 10 μM) | − (“−” indicates less than 50% inhibition at 10 μM) | – | – | – | – | – | – | – | – | – | –
CO[C@H]1[C@H](O)[C@@H](COCc2ccc(Cl)cc2)OC(OCc2ccc(Cl)cc2)[C@@H]1NC(=O)CNC(=N)N (stereo partly drawn) [compound 105] | – | – | – | – | – | – | – | – | – | – | – | − (“−” indicates less than 50% inhibition at 10 μM) | − (“−” indicates less than 50% inhibition at 10 μM) | − (“−” indicates less than 50% inhibition at 10 μM) | + (“+” indicates greater than 50% inhibition at 10 μM) | + (“+” indicates greater than 50% inhibition at 10 μM) | − (“−” indicates less than 50% inhibition at 10 μM) | − (“−” indicates less than 50% inhibition at 10 μM) | − (“−” indicates less than 50% inhibition at 10 μM) | − (“−” indicates less than 50% inhibition at 10 μM) | A5 radioligand binding, percentage inhibition (Human melanocortin (MC5); [125I]-NDP-αMSH): + (“+” indicates greater than 50% inhibition at 10 μM); A7 radioligand binding, percentage inhibition (Human μ-opioid (MOP); [3H]-Naloxone): − (“−” indicates less than 50% inhibition at 10 μM)
CSC1O[C@H](COCc2ccc(Cl)cc2)[C@@H](O)[C@@H](OCc2ccc(-c3ccccc3)cc2)[C@H]1NC(=O)CCNC(=N)N (stereo partly drawn) [compound 291] | – | – | – | – | – | – | – | – | – | – | – | – | – | – | – | – | – | – | – | – | A6: inhibition of radioligand binding, human melanin-concentrating hormone (MCH1) ([1]; [125I]-S36057): − (“−” indicates less than 50% inhibition at 10 μM); A9: inhibition of radioligand binding, human neuropeptide Y (NPY-Y1) ([2]; [125I]-PYY): − (“−” indicates less than 50% inhibition at 10 μM); A10: inhibition of radioligand binding, human opioid (ORL1) (Human opioid (ORL1); [125I]-Nociceptin): − (“−” indicates less than 50% inhibition at 10 μM); A8: inhibition of radioligand binding, human neurokinin (NK1) (Human neurokinin (NK1); [125I]-Substance P): + (“+” indicates greater than 50% inhibition at 10 μM); A4: inhibition of radioligand binding, human melanocortin (MC4) (Human Melanocortin (MC4); [125I]-NDP-αMSH): + (“+” indicates greater than 50% inhibition at 10 μM); A11: inhibition of radioligand binding, mouse urotensin (mUR2) (Mouse urotensin (mUR2); [125I]-Urotensin II): − (“−” indicates less than 50% inhibition at 10 μM); A1: inhibition of radioligand binding, human δ-opioid (DOP) (Human δ-opioid (DOP); [3H]-Bremazocine): − (“−” indicates less than 50% inhibition at 10 μM); A2: inhibition of radioligand binding, human κ-opioid (KOP) (Human κ-Opioid (KOP); [3H]-Diprenorphine): − (“−” indicates less than 50% inhibition at 10 μM); A3: inhibition of radioligand binding, human melanocortin (MC3) (Human Melanocortin (MC3); [125I]-NDP-αMSH): − (“−” indicates less than 50% inhibition at 10 μM); A5: inhibition of radioligand binding, human melanocortin (MC5) (Human melanocortin (MC5); [125I]-NDP-αMSH): − (“−” indicates less than 50% inhibition at 10 μM); A7: inhibition of radioligand binding, human μ-opioid (MOP) (Human μ-opioid (MOP); [3H]-Naloxone): − (“−” indicates less than 50% inhibition at 10 μM)
COCC1OC(OCc2ccccc2)C(NC(=O)CCCN)C(OCc2ccc(Cl)cc2)C1O (stereo not drawn) [compound 180] | – | – | – | – | – | – | – | – | – | – | – | − (“−” indicates less than 50% inhibition at 10 μM) | − (“−” indicates less than 50% inhibition at 10 μM) | − (“−” indicates less than 50% inhibition at 10 μM) | + (“+” indicates greater than 50% inhibition at 10 μM) | − (“−” indicates less than 50% inhibition at 10 μM) | − (“−” indicates less than 50% inhibition at 10 μM) | − (“−” indicates less than 50% inhibition at 10 μM) | − (“−” indicates less than 50% inhibition at 10 μM) | − (“−” indicates less than 50% inhibition at 10 μM) | A5 radioligand binding, percentage inhibition (Human melanocortin (MC5); [125I]-NDP-αMSH): − (“−” indicates less than 50% inhibition at 10 μM); A7 radioligand binding, percentage inhibition (Human μ-opioid (MOP); [3H]-Naloxone): − (“−” indicates less than 50% inhibition at 10 μM)
